Assays:
[1] = test system: GSY, SIRT1, PPARγ in C2C12 cells; test: mRNA expression of genes related with energy in C2C12 cells; type: cell-based, mice; details: C2C12, 0.36 μg/mL (Cr 5 μg/mL), control G1 = 1.00
Method: C2C12 cells were dispensed into a 6-well plate at 2×10^5 cells/well and stabilized for 24 hours. In order to investigate the effect of each test substance on muscle cell differentiation, each test substance was added to the myocyte differentiation medium. The cells were cultured for 4 days (mRNA analysis) or 7 days (protein analysis) after exchanging the cell culture medium with the myocyte differentiation medium treated with each test substance, as shown in Table 2.
C2C12 cells were dispensed into a 6-well plate at 2×10^5 cells/well and stabilized for 24 hours. The cells were cultured for 2 or 4 days after replacing the cell culture with a myocyte differentiation medium containing the test substance. After collecting the cells, total RNA was isolated using an RNeasy Plus Mini kit (QIAGEN), and quantified using a micro-volume spectrophotometer (BioSpec-nano, Shimadzu). RNAs with an OD260/280 value greater than 1.8 were used for experiment.
After obtaining cDNA from the total RNA (2 μg) using a HyperScript™ RT master mix kit (GeneAll Biotechnology), real-time PCR was performed using a Rotor-Gene 300 PCR kit (Corbett Research) and a Rotor-Gene™ SYBR Green kit (QIAGEN). Quantitative analysis of the gene expression was performed using the Rotor-Gene 6000 Series System Software program (Corbett Research).
The result of investigating the effect of the compositions according to Examples 1 to 4 on the mRNA expression of GSY, SIRT1 and PPARγ involved in the energy metabolism of muscle cells is shown in Table 11.

ICR mice [2] = test: Weight of liver and muscles; type: in vivo; details: 6 weeks
Method: (§1) After an acclimatization period of 1 week, healthy animals were selected and divided into 6 groups according to the randomized block design. The animals were divided into (G1) a non-exercise control group, (G2) a non-exercise+7 mg/kg body weight (BW) Example 1 group, (G3) a non-exercise+7 mg/kg BW Example 2 group, (G4) a non-exercise+7 mg/kg BW Example 3 group, (G5) a non-exercise+7 mg/kg BW Example 4 group, (G6) an exercise control group, (G7) an exercise+7 mg/kg BW Example 1 group, (G8) an exercise+7 mg/kg BW Example 2 group, (G9) an exercise+7 mg/kg BW Example 3 group, (G10) an exercise+7 mg/kg BW Example 4 group, and (G11) an exercise+75 mg/kg BW Cr dose group. Each test group consisted of 10 animals.
Before sacrificing, the experimental animal was anesthetized using an anesthetic prepared by dilution of tribromoethanol with tertiary amyl alcohol and blood was taken from the eye socket. The blood was placed in a serum-separating tube (Becton Dickinson) and left at room temperature for 30 minutes, centrifuged at 5,000 rpm for 10 minutes to separate the serum, and kept at −70° C. until analysis. After the blood sampling, the experimental animal was sacrificed and the liver and skeletal muscles [quadriceps femoris muscle (QF), gastrocnemius muscle (GA), soleus muscle (SOL), and extensor digitorum longus muscle (EDL)] were extracted. Their weight was measured after rinsing with cold physiological saline and removing excess water with filter paper. A portion of the soleus muscle (SOL) was fixed with 4% paraformaldehyde (PFA) and then embedded in paraffin for histoimmunological staining. Also, total RNA was isolated from a portion of the soleus muscle and subjected to real-time RT-PCR. Proteins were isolated from a portion of the gastrocnemius muscle (GA) and subjected to western blot. The remaining tissue was kept at −70° C. until analysis.
After the end of the test, the weight of the muscles and liver of the experimental animals was measured.
Since the body weight of the experimental animals was decreased due to exercise and the administration of the test substances, the relative weight of the muscles and liver per 100 g of body weight was calculated and shown in Table 23.

ICR mice [3] = test: Blood biochemistry (serum analysis) at end of test; type: in vivo
Text: After an acclimatization period of 1 week, healthy animals were selected and divided into 6 groups according to the randomized block design. […] Each test group consisted of 10 animals.
The contents of glucose, triglycerides (TG), total cholesterol (CHOL), LDL-cholesterol (LDL-CHOL), HDL-cholesterol (HDL-CHOL), blood urea nitrogen (BUN) and creatinine (CREA) in the serum, and the activities of creatine kinase (CK), lactate dehydrogenase (LDH), alanine aminotransferase (ALT), aspartate aminotransferase (AST) and alkaline phosphatase (ALP) were measured using a blood biochemistry analyzer (KoneLab 20 XT, Thermo Fisher Scientific).

[4] = test system: gastrocnemius muscle (GA); test: Glycogen content in muscle (gastrocnemius muscle, GA); type: in vivo, ICR mice; details: 6 weeks
Method: as §1
A muscle tissue fluid was prepared to measure glycogen content and enzymatic activity in the muscle tissue. 1 mL of PBS was added to the extracted quadriceps femoris muscle (QF), gastrocnemius muscle (GA), soleus muscle (SOL) and extensor digitorum longus muscle (EDL), and the skeletal muscles were homogenized with a homogenizer. The homogenized solution was centrifuged at 5,000 rpm for 10 minutes and then used as a muscle tissue fluid. The amount of proteins in the muscle tissue was measured using a BCA protein assay kit (Thermo Scientific).
The glycogen content in the liver and skeletal muscle (GA) was measured using a glycogen assay kit according to the method presented by the manufacturer (Abcam).
Accordingly, the glycogen content in the muscle (GA) collected at the end of the test was measured.

[5] = treadmill exercise, 7 mg/kg BW (Cr 75 mg/kg BW)
[6] = serum, treadmill exercise, 7 mg/kg BW (Cr 75 mg/kg BW), 6 weeks
[7] = serum, non-exercise, 7 mg/kg BW, 6 weeks

| Compound | mRNA expression PPARγ [1] | mRNA expression Sirt1 [1] | Relative weight of extensor digitorum longus muscle (EDL) (ICR mice [2]; [5]) | Relative weight of gastrocnemius muscle (GA) (ICR mice [2]; [5]) | Relative weight of quadriceps femoris muscle (QF) (ICR mice [2]; [5]) | Relative weight of soleus muscle (SOL) (ICR mice [2]; [5]) | Weight of extensor digitorum longus muscle (EDL) (ICR mice [2]; [5]) | Weight of gastrocnemius muscle (GA) (ICR mice [2]; [5]) | Weight of quadriceps femoris muscle (QF) (ICR mice [2]; [5]) | Weight of soleus muscle (SOL) (ICR mice [2]; [5]) | CREA (ICR mice [3]; [6]) | Glycogen content in 1 mg of GA [4, 5] | Total glycogen content in GA [4, 5] | also measured |
| --- | --- | --- | --- | --- | --- | --- | --- | --- | --- | --- | --- | --- | --- | --- |
| CN(CC(=O)O)C(=N)N.O [Cr, Creatine monohydrate, reference compound] | 2.93 ± 1.32 | 1.13 ± 0.18 | 0.059 ± 0.004 g/100 g body weight | 1.078 ± 0.028^ g/100 g body weight | 0.873 g/100 g body weight | 0.061 g/100 g body weight | 0.022 ± 0.001 g | 0.409 ± 0.012 g | 0.330 g | 0.023 g | 0.363 mg/dL | 3.32 ± 0.21^+ μg/mg GA | 1350.5 ± 73.7^+ μg/GA | BUN (ICR mice [3]; [6]): 7.84 ± 0.47 mg/dL; CK (ICR mice [3]; [6]): 521.5 U/L; LDH (ICR mice [3]; [6]): 1,169 U/L; Lactate (ICR mice [3]; [6]): 5.30 ± 0.41^++ μmol/L |
| CC(C)=CCC[C@](C)(O)C1CC[C@]2(C)C1[C@H](O)CC1[C@@]3(C)C[C@@H](O)C(OC4OC(CO)C(O)C(O)C4OC4OC(CO)C(O)C(O)C4O)C(C)(C)C3CC[C@]12C (stereo partly shown) [Example 1, Gypenoside L] | 1.16 ± 0.47 | 1.40 ± 0.22 | 0.056 ± 0.003 g/100 g body weight | 1.122 ± 0.032^+ g/100 g body weight | 0.827 g/100 g body weight | 0.064 g/100 g body weight | 0.020 ± 0.001 g | 0.406 ± 0.012 g | 0.296 g | 0.023 g | 0.348 mg/dL | 3.38 ± 0.12^+ μg/mg GA | 1404.4 ± 83.3^+ μg/GA | mRNA expression GSY [1]: 2.71 ± 0.32; Relative weight of extensor digitorum longus muscle (EDL) (ICR mice [2]; non-exercise, 7 mg/kg BW): 0.056 ± 0.002 g/100 g body weight; Relative weight of gastrocnemius muscle (GA) (ICR mice [2]; non-exercise, 7 mg/kg BW): 1.040 ± 0.036^ g/100 g body weight; Relative weight of quadriceps femoris muscle (QF) (ICR mice [2]; non-exercise, 7 mg/kg BW): 0.742 g/100 g body weight; Relative weight of soleus muscle (SOL) (ICR mice [2]; non-exercise, 7 mg/kg BW): 0.056 g/100 g body weight; Weight of extensor digitorum longus muscle (EDL) (ICR mice [2]; non-exercise, 7 mg/kg BW): 0.021 ± 0.001 g; Weight of gastrocnemius muscle (GA) (ICR mice [2]; non-exercise, 7 mg/kg BW): 0.392 ± 0.010 g; Weight of quadriceps femoris muscle (QF) (ICR mice [2]; non-exercise, 7 mg/kg BW): 0.282 g; Weight of soleus muscle (SOL) (ICR mice [2]; non-exercise, 7 mg/kg BW): 0.021 g; BUN (ICR mice [3]; 7 mg/kg, 1008 h): 7.10 ± 0.40 mg/dL; CK (ICR mice [3]; 7 mg/kg, 1008 h): 471.7 U/L; LDH (ICR mice [3]; 7 mg/kg, 1008 h): 1,198 U/L; BUN (ICR mice [3]; [7]): 7.54 ± 0.47 mg/dL; CK (ICR mice [3]; [7]): 416.7 U/L; CREA (ICR mice [3]; [7]): 0.312 mg/dL; LDH (ICR mice [3]; [7]): 894 U/L; Lactate (ICR mice [3]; [7]): 5.15 ± 0.30 µmol/L; Glycogen content in 1 mg of GA ([4]; non-exercise, 7 mg/kg BW): 3.56 ± 0.15 μg/mg GA; Total glycogen content in GA ([4]; non-exercise, 7 mg/kg BW): 1442.1 ± 76.2 μg/GA |

Reference: patent US20250057864A1, “COMPOSITION FOR IMPROVING EXERCISE PERFORMANCE COMPRISING GYPENOSIDE COMPOUND AS ACTIVE INGREDIENT” (BTC CORPORATION, priority 2022, published 2025)
